PMC6199744, “Development of Chemical Proteomics for the Folateome and Analysis of the Kinetoplastid Folateome” (ACS Infectious Diseases, 2018)

How the values were obtained:
Assay in all cases: Multitargeted bead mixture competition
[1] = tested on: CHOLINE KINASE (TB427TMP.18.0017); type: binding, T. brucei; settings: for fold change - vehicle control / fold change vs vehicle control: protein TB427TMP.18.0017 CHOLINE KINASE; for fold change vs vehicle control: vehicle control = 1
[2] = target: GLYCERALDEHYDE 3-PHOSPHATE DEHYDROGENASE, GLYCOSOM (TB427.06.4300) (Trypanosoma brucei brucei, UniProt P22512); type: binding, T. brucei; settings: for fold change - vehicle control / fold change: protein TB427.06.4300 GLYCERALDEHYDE 3-PHOSPHATE DEHYDROGENASE, GLYCOSOMAL; for fold change: vehicle control = 1
[3] = tested on: haloacid dehalogenase-like hydrolase (LmjF.28.1370); type: binding, Leishmania; settings: for fold change: protein LMJF.28.1370 HALOACID DEHALOGENASE-LIKE HYDROLASE, PUTATIVE, vehicle control = 1
[4] = target: PTERIDINE REDUCTASE (TB927.8.2210) (Trypanosoma brucei brucei, UniProt O76290); type: binding, T. brucei; settings: for fold change - vehicle control / fold change vs vehicle control: protein PTERIDINE REDUCTASE (CZT00009056.1); for fold change vs vehicle control: vehicle control = 1; for competition for PTR1 (Figure 6): bead mixture, compound 100 μM
[5] = target: DIHYDROFOLATE REDUCTASE-T[…] (TB427.07.5480) (Trypanosoma brucei brucei, UniProt Q27783); type: binding; settings: for fold change vs vehicle control: vehicle control = 1
[6] = protein TB427.07.5480 DIH[…]-T[…]

Chain of UniProt Q27783 (Q27783 whole entry): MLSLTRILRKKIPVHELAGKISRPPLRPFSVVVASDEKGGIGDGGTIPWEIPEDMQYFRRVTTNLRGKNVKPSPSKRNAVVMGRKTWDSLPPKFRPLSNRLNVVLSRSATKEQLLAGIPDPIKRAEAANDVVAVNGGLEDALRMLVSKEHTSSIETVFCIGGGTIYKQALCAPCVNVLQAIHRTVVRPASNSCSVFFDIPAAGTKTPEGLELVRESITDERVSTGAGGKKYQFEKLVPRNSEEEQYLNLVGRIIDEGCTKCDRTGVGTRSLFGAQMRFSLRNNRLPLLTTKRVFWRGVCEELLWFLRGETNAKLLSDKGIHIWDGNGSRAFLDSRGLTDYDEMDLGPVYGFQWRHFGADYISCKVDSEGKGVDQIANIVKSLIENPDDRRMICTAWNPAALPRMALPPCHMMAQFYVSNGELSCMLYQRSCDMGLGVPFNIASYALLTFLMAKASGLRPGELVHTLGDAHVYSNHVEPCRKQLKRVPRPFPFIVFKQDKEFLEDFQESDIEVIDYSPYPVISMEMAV
Chain of UniProt P22512 (P22512 whole entry): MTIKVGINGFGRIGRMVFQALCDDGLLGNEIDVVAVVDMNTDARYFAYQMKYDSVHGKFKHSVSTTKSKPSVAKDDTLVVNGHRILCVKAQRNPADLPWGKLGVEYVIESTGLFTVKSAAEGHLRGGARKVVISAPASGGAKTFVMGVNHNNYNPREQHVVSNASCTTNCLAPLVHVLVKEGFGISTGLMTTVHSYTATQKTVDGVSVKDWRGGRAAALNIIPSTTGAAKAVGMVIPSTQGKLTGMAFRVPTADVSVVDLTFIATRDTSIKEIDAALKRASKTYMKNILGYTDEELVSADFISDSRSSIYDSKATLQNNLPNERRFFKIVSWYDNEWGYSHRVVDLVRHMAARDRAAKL
Chain of PTERIDINE REDUCTASE (TB927.8.2210) (O76290 entry or part of it): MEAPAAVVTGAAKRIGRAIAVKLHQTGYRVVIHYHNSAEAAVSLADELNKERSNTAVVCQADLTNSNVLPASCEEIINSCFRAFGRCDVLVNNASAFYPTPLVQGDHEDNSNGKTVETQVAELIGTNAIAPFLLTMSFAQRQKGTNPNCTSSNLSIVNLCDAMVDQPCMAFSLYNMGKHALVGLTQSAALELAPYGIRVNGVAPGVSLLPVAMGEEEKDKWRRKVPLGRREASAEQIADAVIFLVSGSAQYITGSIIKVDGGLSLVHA

SMILES | fold change - vehicle control [1] | fold change - vehicle control [2] | fold change [3] | fold change - vehicle control [4] | fold change - vehicle control [5, 6] | fold change vs vehicle control [1] | fold change [2] | fold change vs vehicle control [4] | fold change vs vehicle control [5, 6] | interaction with haloacid dehalogenase-like hydrolase (LmjF.28.1370) ([3]; bead mixture, Leishmania lysates) | competition for PTR1 (Figure 6) ([4]; T. brucei lysate) | fold change vs vehicle control ([5]; protein TB427.07.5480 DIHYDROFOLATE REDUCTASE-T[…]) | percentage of competition from bead binding ([1]; multitargeted bead mixture, free ligand 100 μM, T. brucei lysate, TB427TMP.18.0017 CHOLINE KINASE) [%] | percentage of competition from bead binding ([2]; multitargeted bead mixture, free ligand 100 μM, T. brucei lysate, TB427.06.4300 GAPDH) [%] | percentage of competition from bead binding ([4]; multitargeted bead mixture, free ligand 100 μM, T. brucei lysate, TB927.8.2210 PTERIDINE REDUCTASE) [%] | percentage of competition from bead binding ([5]; multitargeted bead mixture, free ligand 100 μM, T. brucei lysate, TB427.07.5480 DHFR-TS) [%]
CCCCCCOc1cccc(Cc2cnc(N)nc2N)c1 [compound 2] | 1.11 | 1.01 | 1 | 0.92 | 1.44 |  |  |  |  |  |  |  |  |  |  | 
NCCOCCOCC(=O)Nc1nc2ncc(CNc3ccc(C(=O)NC(CCC(=O)O)C(=O)O)cc3)nc2c(=O)[nH]1 (stereo not drawn) [compound 6] |  |  | 0.89 |  |  | 1.05 | 0.92 | 0.49 | 1.09 |  |  |  |  |  |  | 
CCCCCCOc1ccc(Cc2cnc(N)nc2N)cc1 [compound 1] | 1.05 | 0.93 | 0.13 | 1 | 1.45 |  |  |  |  | interacted strongly |  |  |  |  |  | 
Nc1nc2c(c(=O)[nH]1)N(C=O)C(CNc1ccc(C(=O)N[C@@H](CCC(=O)O)C(=O)O)cc1)CN2 (stereo partly drawn) [LEU, leucovorin] |  |  | 1.05 |  |  | 0.95 | 1.01 | 0.92 | 1.45 |  |  |  |  |  |  | 
NCCCNc1ccc(C(=O)NC(CCC(=O)O)C(=O)O)cc1 (stereo not drawn) [compound 7] |  |  | 1.02 |  |  | 1.16 | 1.07 | 1.03 | 0.98 |  |  |  |  |  |  | 
Nc1nc2[nH]cc(CCc3ccc(C(=O)N[C@@H](CCC(=O)O)C(=O)O)cc3)c2c(=O)[nH]1 [PTX, pemetrexed] |  |  | 0.93 |  |  | 0.98 | 0.91 | 0.16 |  |  | competed for PTR1 | 1.19 |  |  |  | 
Nc1nc2cccc(-c3ccccc3)c2n1Cc1ccc(Cl)c(Cl)c1 [compound 3] | 1 | 0.99 | 1.07 | 0.15 | 0.98 |  |  |  |  |  | competed for PTR1 |  | -1 | 3 | 89 | -11
